Data: patent US20250170268A1, “METHODS AND TOOLS FOR CONJUGATION TO ANTIBODIES” (priority 2022, published 2025)

What was measured:
Type in all cases: cell-based
Conditions in all cases: Homo sapiens
[1] = system: CEACAM5-positive SK-CO-1 cells; assay: Cell viability assay (Cell Titer-Glo, six days) on SK-CO-1
Protocol: (§1) Cytotoxicity effects of the ADC on the cancer cell lines were measured by cell viability assays. Cells were seeded in a volume of 90 μL in 96-well plates the day before treatment. Test compounds (ADCs or free payloads) were formulated at 10-fold the starting concentration in cell culture medium. Test compounds were serial diluted (1:4) and 10 μL of each dilution was added to the cells in triplicates. Plates were cultured at 37° C. in a CO2 incubator for six days. For cell viability measurement, Cell Titer-Glo® reagent (Promega™ Corp, Madison, WI) was added to each well, and plates processed according to the manufacturer's instructions. Luminescence signals were measured using a Varioskan plate reader (Thermo Fisher). Luminescence readings were converted to % viability relative to untreated cells. Data was fitted with non-linear regression analysis, using log (inhibitor) vs. response, variable slope, 4-parameter fit equation using Genedata Screener or GraphPad Prism. Data is shown as % relative cell viability vs. molar compound concentration, error bars indicating standard deviation (SD) of duplicates or triplicates. Geometric mean values of IC50s derived from multiple experiments were calculated.
(§2) A fold reduction in IC50, defined as a S[…], was calculated by dividing the IC50 against CEACAM5-negative MDA-MB-231 cells by the IC50 against each CEACAM5-positive cell line (see Table 6). […]

[2] = system: CEACAM5-positive MKN-45 cells; assay: Cell viability assay (Cell Titer-Glo, six days) on MKN-45
Protocol: as §1, §2

[3] = system: CEACAM5-negative MDA-MB-231 cells; assay: Cell viability assay (Cell Titer-Glo, six days) on MDA-MB-231
Protocol: as §1, §2

[4] = system: CEACAM5-positive SNU-16 cells; assay: Cell viability assay (Cell Titer-Glo, six days) on SNU-16
Protocol: as §1, §2

[5] = system: CEACAM5-positive LS174T cells; assay: Cell viability assay (Cell Titer-Glo, six days) on LS174T
Protocol: as §1

IC50 ([1]; 144 h, read-out: SK-CO-1 IC50 [M], n ≥ 2, SK-CO-1, CEACAM5 positive, six days, geometric mean): 2.2e-10 M
IC50 ([2]; 144 h, read-out: MKN-45 IC50 [M], n ≥ 2, MKN-45, CEACAM5 positive, six days, geometric mean): 6.6e-10 M
IC50 ([3]; 144 h, read-out: MDA-MB-231 IC50 [M], n ≥ 3, MDA-MB-231, CEACAM5 negative, six days, n/a = below −50% effect cut-off): 6e-10 M
IC50 ([4]; 144 h, read-out: SNU-16 IC50 [M], n ≥ 2, SNU-16, CEACAM5 positive, six days, geometric mean): 2.9e-10 M
SMILES: CC[C@@]1(O)C(=O)OCc2c1cc1n(c2=O)Cc2c-1nc1cc(F)c(C)c3c1c2[C@@H](N)CC3 [Payload, (1S,9S)-1-Amino-9-ethyl-5-fluoro-1,2,3,9,12,15-hexahydro-9-hydroxy-4-methyl-10H, 13H-benzo (de) pyrano (3′,4′: 6,7) indolizino (1,2-b) quinoline-10,13-dione]
Emax ([1]; SK-CO-1, at the highest tested compound concentration, read-out: Maximal effect compared to untreated controls, SK-CO-1): -97%
Emax ([2]; MKN-45, at the highest tested compound concentration, read-out: Maximal effect compared to untreated controls, MKN-45): -100%
Emax ([3]; MDA-MB-231, at the highest tested compound concentration, read-out: Maximal effect compared to untreated controls, MDA-MB-231): -91%
Emax ([4]; SNU-16, at the highest tested compound concentration, read-out: Maximal effect compared to untreated controls, SNU-16): -99%
IC50 ([5]; 144 h, read-out: LS174T IC50 [M], n ≥ 2, CEACAM5 positive, six days, geometric mean): 3e-10 M
Emax ([5]; at the highest tested compound concentration, read-out: Maximal effect compared to untreated controls, LS174T): -91%
